According to US9682994B2, “Inhibitors of retroviral replication” (The Scripps Research Institute, priority 2011, dated 2017):

Experiments:
HIV-2 (ROD/A) = assay: Acute HIV-2 replication in HeLa-CD4 cells, p24 ELISA; format: cell-based; conditions: p24, 5 days post-infection
Source text: Antigen p24 in the supernatant measured using a sandwiched ELISA kit, 5 days post-infection.

NF-kB reporter construct = assay: TNF-α activation of NF-kB luciferase reporter in TE671 cells; format: cell-based
Experimental: FIG. 8B: TE671 cells were transfected with an NF-kB luciferase reporter plasmid. The following day cells were treated with TNF-α in presence or absence of dCA. Cells were lysed 5 hours later and Luciferase activity was measured as in FIG. 8A.
TE671 cells were plated at 6.25×10^4 per well in a 24-well plate. Cells were transfected twenty-four hours later with either 200 ng or 400 ng of NF-kB-Luc (Promega, Cat No. E8491) using Fugene 6 (Roche) per manufacturer's instruction. […] Cells were lysed 5 hours later with 1× Lysis Buffer and luciferase activity was measured using the luciferase Assay System (Promega) on a Berthhold luminometer. Protein concentration was determined by Bradford assay. Results corresponding to the adjustment of the luciferase activity per protein concentration of each sample are shown as Relative light units (RLU). Experiments were performed in triplicate.

HIV = assay: Viral RNA release from CD4+ T cells of aviremic (HAART) subjects, ultrasensitive RT-PCR; format: cell-based, human
Experimental: All patients provided written informed consent, according to the guidelines of the ethics committee of the Oregon Health and Science University. […] Viral production was measured in the supernatant by a sensitive in-house ELISA specific for the viral capsid protein, p24. […] Viral production was measured by quantification of viral particle-associated RNA by ultra-sensitive two-step quantitative real-time reverse transcription-PCR (RT-qPCR). Briefly, viral particles in the cell culture supernatant were pelleted by centrifugation (60 min, 25000 g at 4° C.). To generate the standard curve, a sample of LAI-HIV with known titer was pelleted in the same run. […]
Total viral RNA was reverse-transcribed into cDNA with gag gene-specific primers (25 pmol each), LM667 and GagR according to manufacturer's instructions (RT-PCR One Step kit—Invitrogen). Pre-amplified products were diluted in DNase-RNase free water, then subjected to quantitative real-time PCR on Rotor-Gene Q (Qiagen) in a reaction 25 pmol of the sense primer Lambda T, 25 pmol of the antisense primer AA55M, and 4 pmol of each hybridization probes (TIB MolBiol).
Total viral RNA (17 μL) was first treated with 1 unit DNase I (Invitrogen) for 10 min at 25° C. followed by DNase I inactivation with 1 μL 25 mM EDTA for 10 min at 65° C. Total viral RNA was then reverse-transcribed into cDNA for quantitative PCR analysis. […]

[1] = system: Tat transactivation of the HIV-1 LTR; assay: Tat transactivation assay, HeLa-CD4-LTR-Luc cells; format: cell-based
Experimental: Chloroquine 100 μM was added to increase Tat uptake was added to all points except untreated wells. Luciferase activity was measured 24 h later using the Luciferase Assay System (Promega). Luciferase activity per protein concentration of each sample is shown as relative light units (RLU). HI: Heat Inactivated.
FIG. 2B: HeLa-LTR-Luc cells were transfected with 2 μg of a construct expressing Tat-flag driven by the thymidine kinase (TK) promoter. […] Forty hours later RLU determined as in FIG. 2A.
Luciferase activity measured and results adjusted per protein concentration of each sample, relative light units (RLU).
PL11 cells were plated at 1×10^5 cells per well in a 6 well plate. The following day recombinant Tat protein (AIDS Research and Reference Reagent Program, Cat No. 11882) at 5 μg/ml and/or Cortistatin A at increasing concentrations were added to the cells, in culture media without serum and in the presence of 100 μM of chloroquine (increases Tat uptake). Five hours later, serum was added at 5% to the culture media. Forty hours later cells were lysed with 1× Lysis Buffer and luciferase activity was measured as before. Protein concentration was determined by Bradford assay. Results corresponding to the adjustment of the luciferase activity per protein concentration of each sample are shown as RLU. […]

CN(C)[C@H]1C[C@@]23CC[C@@]4(O2)C(=CC[C@]2(C)C(c5ccc6ccncc6c5)=CC[C@H]24)C=C3[C@@H](O)[C@@H]1O [dCA, didehydro-Cortistatin A]
EC50 (HIV-2 (ROD/A)): ~5 nM | TNFα activation of an NF-κB reporter construct (NF-kB reporter construct): no effect | viability of the cells (HIV; at the concentrations used): did not affect the viability | reduction of viral production (HIV; day 6, in the presence of ARVs, no IL-2): 99.7% | basal transcription from the LTR promoter ([1]; absence of Tat, or PMA activation): did not alter basal transcription | Tat-mediated transcriptional activation of LTR-Luc ([1]; recombinant Tat protein added): Transcriptional repression
